Test results taken from patent US8410310B2, “Trypsin-like serine protease inhibitors, and their preparation and use” (The Medicines Company (Leipzig) GmbH, priority 2006, dated 2013).

Experiments:
[1] = target: T1, Human factor Xa (Homo sapiens, UniProt P00742); assay: Inhibition constants against purified human serine proteases: FXa; format: biochemical; settings: for Ki: 50 mM Tris-HCl pH 8.0, 154 mM NaCl, Pefachrome FXa
T1 construct: Human factor Xa, factor XIa, factor XIIa, thrombin, and plasma kallikrein were purchased; purchased Enzyme Research Laboratories (via Haemochrom, Essen)
T1 sequence (P00742 235-488 limits assumed): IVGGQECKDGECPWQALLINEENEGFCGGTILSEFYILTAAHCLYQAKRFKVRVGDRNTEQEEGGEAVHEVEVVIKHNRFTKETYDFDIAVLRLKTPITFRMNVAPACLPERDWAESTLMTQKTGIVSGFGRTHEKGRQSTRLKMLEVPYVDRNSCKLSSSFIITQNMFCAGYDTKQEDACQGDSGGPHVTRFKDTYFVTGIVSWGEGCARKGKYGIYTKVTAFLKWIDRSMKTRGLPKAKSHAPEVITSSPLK
T1 sequence (P00742 41-179 partner limits assumed): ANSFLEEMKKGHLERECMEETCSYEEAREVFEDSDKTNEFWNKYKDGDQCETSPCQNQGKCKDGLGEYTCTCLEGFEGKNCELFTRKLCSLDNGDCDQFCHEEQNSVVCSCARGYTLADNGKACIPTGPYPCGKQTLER
Description: Aprotinin and tranexamic acid were purchased from SIGMA (Schnelldorf, Germany). Human factor Xa, factor XIa, factor XIIa, thrombin, and plasma kallikrein were purchased from Enzyme Research Laboratories, and human plasmin from Chromogenix (both via Haemochrom, Essen, Germany). Various synthetic peptide chromogenic substrates used for determination of inhibition constants were obtained from Pentapharm (Basel, Switzerland), Roche (Mannheim, Germany), and Chromogenix: Chromozyme PL for plasmin, S2302 for plasma kallikrein, Pefachrome FXa for factor Xa, Chromozym XII for FXIIa, Pefachrom tPA for thrombin, and Pefachrome PCa for factor XIa. Tissue-type plasminogen activator was obtained from Boehringer Ingelheim (Ingelheim, Germany). INTEM, EXTEM and STARTEM reagents and disposables for ROTEM® measurements were obtained from Pentapharm (Munich, Germany).
Inhibition of purified human serine proteases by Compound No. 3 and aprotinin was studied using the established methods described herein in Example 3 (i.e., Stürzebecher et al., 1997). Enzyme kinetic experiments were carried out in 96-well flat-bottom plates (Brand, Wertheim, Germany) in 50 mM Tris-HCl pH 8.0, 154 mM NaCl in the presence of different substrate and inhibitor concentrations. Steady-state velocities of substrate conversion were obtained from progress curves generated by continuous monitoring of the absorbance at 405 nm with a microplate reader (Multiskan Ascent, Thermo Electron Corporation, Dreieich, Germany). […] Inhibition constants (Ki) were calculated from non-linear fits of individual data sets to the Michaelis-Menten equation for competitive inhibitors using an enzyme kinetic analysis software (SIGMA Plot® 9.0 Enzyme Kinetics Module, SSI, San Jose, Calif.). Dixon plot analysis was applied to confirm the competitive inhibition mode.

[2] = tested on: whole blood clotting; assay: Whole blood coagulation assay (ROTEM, INTEM/EXTEM); format: cell-based, human; settings: for whole blood coagulation times (INTEM, EXTEM clotting time): 100 to 1000 nM; for clot strength (ROTEM maximum amplitude): over the concentration range tested (data not shown)
Description: (§1) Since Compound No. 3 inhibits multiple proteases of the coagulation system, we investigated possible anticoagulant properties using established tests in vitro. Whereas tissue factor is the physiologic trigger of coagulation, both extrinsic and contact-mediated stimulation contribute to hemostatic activation under conditions like CPB (Boisclair et al. Blood 82: 3350-7, 1993 and Edmunds et al., Ann. Thorac. Surg. 82: 2315-22, 2006). We therefore studied the impact of Compound No. 3 and aprotinin on coagulation in plasma and whole blood following both intrinsic and extrinsic stimulation. Tranexamic acid has no influence on other proteases than plasminogen and, therefore, is not included in these experiments.
The influence on whole blood clotting was assayed with rotational thrombelastometry (Ganter et al., Anesth. Analg. 106: 1366-75, 2008) using ellagic acid (INTEM reagent) as activator of the intrinsic system or tissue factor (EXTEM reagent) as extrinsic coagulation activator. Following a 5-min pre-incubation with test compounds or saline, citrated human blood was subjected to ROTEM® analysis according to the manufacturer's instructions. ROTEM® clotting time (equal to reaction time, r) and maximum clot strength (equal to maximum amplitude) were obtained as coagulation parameters.

[3] = tested on: t-PA-induced fibrinolysis in plasma; assay: Plasma fibrinolysis assay (turbidometric); format: biochemical; settings: human plasma, t-PA 50 U/mL; for IC50: read-out: IC50 on t-PA-induced fibrinolysis in plasma (median [25%; 75% percentile])
Protocol: Venous blood was withdrawn from the antecubital vein from healthy volunteers after written informed consent in accordance with local and federal guidelines with approval of the local review board (Ethikkommission, Klinikum Charité, Sauerbruchweg 5, 10117 Berlin). The blood was mixed with 0.11 mol/L sodium citrate (1:10). For ROTEM® analysis, whole citrated blood was used within 8 h after collection. Platelet-rich plasma (PRP) was prepared from citrated blood by centrifugation at 330×g for 10 min at room temperature, platelet-poor plasma (PPP) was collected following centrifugation at 1220×g for 12 min. The PRP was then adjusted to 3×10^8 platelets per mL using the autologous PPP. PRP was maintained at room temperature for less than 4 h before analysis. The remaining PPP was subjected to a high-speed centrifugation at 40,000×g for 30 min at 4° C. to remove any particulate material and was then stored at −70° C. until use.
The antifibrinolytic activity of Compound No. 3 in comparison to aprotinin and tranexamic acid was investigated in plasma and whole blood assays. In both assays, tissue factor was added to initiate rapid clot formation via the extrinsic pathway which produces a clot that remains stable for several hours under normal conditions. Supplementation of plasma or whole blood with tissue-type plasminogen activator (t-PA) before stimulation results in activation of endogenous plasminogen and thus fibrinolysis while the initial clot formation is not impaired. […] A final concentration of 50 U/mL and 100 U/mL in plasma and whole blood, respectively, was chosen to achieve complete lysis within about 60 min. In the presence of antifibrinolytics, clot lysis is delayed in a concentration-dependent manner.
Inhibition of fibrinolysis in plasma was examined using a turbidometric method in 96-well flat-bottom plates. The time course of clot formation and lysis, reflected by an initial increase and subsequent decrease in turbidity, was recorded by continuously measuring the optical density (OD) at 405 nm. Similar models have been used widely to study the clot lysis process in human plasma (Kim et al., J. Thromb. Haemost. 5: 1250-6, 2007) as well as its inhibition by antifibrinolytic drugs (Sperzel et al., J. Thromb. Haemost. 5: 2113-8, 2007). Frozen and thawed human plasma (PPP) was pre-incubated with test compound or vehicle (Owren's Veronal buffer) for 5 min at 37° C. […] OD at 405 nm was monitored every 45 s for 180 min at 37° C. with a microplate reader (POLARstar OPTIMA, BMG Labtech, Offenburg, Germany). Fibrinolysis was quantified as the relative decrease in OD at 45 min after the maximum OD was reached. […]

[4] = tested on: coagulation in human plasma (PPP); assay: Plasma coagulation times (prothrombin time, activated partial thromboplastin time); format: biochemical; settings: for plasma coagulation times (prothrombin time, activated partial thromboplastin time): 100 to 1000 nM
Description: as §1
Prothrombin time and activated partial thromboplastin time were determined after human plasma (PPP) was supplemented with test compound solution or saline using a conventional coagulation analyzer (Sysmex CA-560, Dade Behring). Reagents used were Innovin® (extrinsic activator containing tissue factor) for prothrombin time and Actin® FSL (contact activator containing ellagic acid and phospholipids) for activated partial thromboplastin time, both from Dade Behring (Eschborn, Germany).

[5] = higher aprotinin concentrations (data not shown)

Molecule	Ki [1]	stronger inhibition of FXa than aprotinin ([1]; versus aprotinin)	whole blood coagulation times (INTEM, EXTEM clotting time) [2]	clot strength (ROTEM maximum amplitude) [2]	IC50 [3]	plasma coagulation times (prothrombin time, activated partial thromboplastin time) [4]	intrinsic ROTEM clotting times [2, 5]	IC50 on t-PA-induced fibrinolysis in plasma expressed in KIU/mL ([3]; converted from nM)	activated partial thromboplastin time [4, 5]	extrinsic coagulation [4, 5]
N=C(N)c1ccc(CNC(=O)[C@H](Cc2cccc(CN)c2)NC(=O)[C@@H](CCCc2ccccc2)NS(=O)(=O)Cc2cccc(C(=O)O)c2)cc1 [compound 3, 3-HOOC-Bzls-d-Ppg-Phe(3-Ame)-4-Amba×2 acetate]	45 ± 5 nM	1200 fold	significant prolongation	Neither Compound No. 3 nor aprotinin impaired clot strength	315 nM	significant prolongation				
aprotinin	55600 nM		almost no influence	Neither Compound No. 3 nor aprotinin impaired clot strength	327 nM	almost no influence	marked prolongation	15 KIU/mL	marked prolongation	not affected
